Reference: article PMC10743895, “Synthesis of 1,3,4-Thiadiazole Derivatives and Their Anticancer Evaluation” (International Journal of Molecular Sciences, 2023)
pIC50: −log10 of the molar value. Like-named read-outs stand apart in the source and are kept apart here.

Columns and labels:
HUVEC normal cells = assay: MTS cell viability assay, HUVEC normal cells; type: cell-based, human; details: Homo sapiens, HUVEC
Procedure: (§1) To determine the optimal working concentration, dose-effect curves were made for each compound in the range of concentrations between 6.25 and 400 μM.
(§2) LoVo (human colorectal adenocarcinoma) human cancer cell line and HUVEC normal cells were purchased from American Type Culture Collection (ATCC). The MCF-7 human breast adenocarcinoma cell line was provided from European Collection of Authenticated Cell Cultures (ECACC). HUVEC normal cells, isolated from the vascular endothelium of an umbilical cord, were used as a reference. Adherent cells were maintained in culture in Dulbecco’s modified Eagle medium/nutrient mixture F-12 (DMEM:F12) with 2 mM of L-glutamine, 10% fetal bovine serum, 100 units/mL of penicillin and 100 μg/mL of streptomycin, and incubated at 37 °C in a 5% CO2-humidified atmosphere. After 24 h, adherent cells were treated with different concentrations of the compounds for different periods of time. Cis-Pt and DOX, conventional oncology drugs used in cancer treatments, can be used as a positive control of the experiments. […] Then, cells were detached with a nonenzymatic solution of phosphate-buffered saline (PBS)/1 mM EDTA and washed twice in PBS.
(§3) The study utilized a colorimetric assay based on MTS (chemically known as 3-(4,5-dimethylthiazol-2-yl)-5-(3-carboxymethoxyphenyl)-2-(4-sulfophenyl)-2H-tetrazolium) and called CellTiter 96 Aqueous One Solution Cell proliferation Assay (Promega, Madison, WI, USA) in order to measure cell viability. The assay was performed in triplicate in 96-well microtiter plates with a flat bottom (Falcon). A number of 1 × 10^4 cells/well were cultured in 100 μL for 24 h, culture supernatants were discarded, and then cells were treated for 24 and 48 h with increasing concentrations of the tested compound. After the end of the incubation time, 20 μL of the reagent containing MTS and PES (phenazine ethosulfate) was added in each well. Plates were incubated for 4 h at 37 °C, with mild agitation every 15 min. The reduction in the tetrazolium compound to formazan was spectrophotometrically measured at λ = 492 nm using a Dynex plate reader (DYNEX Technologies MRS, Chantilly, VA, USA). The percentage of viability compared to untreated cells (considered 100% viable) was calculated with the formula:(1) Cell viability (%)=Absorbance treated cells−Absorbance culture medium/Absorbance untreated cells−Absorbance culture medium×100
(§4) The cell viability compared was calculated and data were expressed as a mean ± standard deviation (SD) of the experiments and obtained in triplicate (n = 3).

LoVo cells [1] = assay: MTS cell viability assay, LoVo cells; type: cell-based, human; details: Homo sapiens, LoVo
Procedure: as §1, §2, §3, §4

MCF-7 cells [2] = assay: MTS cell viability assay, MCF-7 cells; type: cell-based, human; details: Homo sapiens
Procedure: as §1, §2, §3, §4

HUVEC cells = assay: Apoptosis assay (Annexin V-FITC/PI flow cytometry), HUVEC; type: cell-based, human
Procedure: (§5) Two reference concentrations, 5 μM and 50 μM, and two distinct treatment durations, 24 and 48 h, were employed to assess the influence of the test compounds on apoptosis in both normal and tumor cells. […] HUVEC cells were exposed to both drugs.
(§6) The apoptosis assay was performed according to the manufacturer’s instructions using the Annexin V-FITC kit (BD Biosciences, San Jose, CA, USA). Cells untreated and treated with the experimental compound were suspended in a cold binding buffer. The percentages of apoptotic cells were determined by double staining with Annexin V-FITC/PI. In each tube was added 400 μL of Annexin V binding buffer and the 5000 cells/sample for 15 min in the dark at room temperature. The cells were analyzed using a FACSCantoII flow-cytometer (Becton Dickinson—BD, La Jolla, CA, USA). The analysis was performed using DIVA 6.2 software to discriminate viable cells (FITC-PI-) from necrotic cells (FITC + PI+), and early apoptosis (FITC + PI) from late apoptosis.

LoVo cells [3] = assay: Apoptosis assay (Annexin V-FITC/PI flow cytometry), LoVo; type: cell-based, human
Procedure: as §5, §6

MCF-7 cells [4] = assay: Apoptosis assay (Annexin V-FITC/PI flow cytometry), MCF-7; type: cell-based, human
Procedure: as §5, §6

[5] = Daphnia magna toxicity assay; type: in vivo; details: Daphnia magna, in vivo
Procedure: (§7) The Daphnia magna bioassay results are presented in Table 3 as the maximum average percentage of lethality (L%) registered for each compound and the median lethal concentration (LC50) if the values permitted its calculation.
(§8) Daphnia magna Straus is parthenogenetically maintained at ‘Carol Davila’ University’s Department of Pharmaceutical Botany and Cell Biology. The culture was consistently maintained at a temperature of 25 °C, with a 16-h light and 8-h dark photoperiod. To ensure consistency, young daphnids were carefully chosen based on their size and kept in an artificial medium for 24 h prior to the assessment. The bioassay involved 10 daphnids per replicate, using tissue culture plates with 12 wells from Greiner Bio-One. The experimental procedure followed the protocol described in previous studies.
(§9) Each determination was carried out in duplicate.

Daphnia magna = Daphnia magna toxicity assay; type: in vivo; details: up to 200 µM
Procedure: as §7, §8, §9

MCF-7 = system: MCF-7; design: method as in earlier work; details: ref 16 (Yang et al.); cited from earlier work
[6] = read-out: IC50 (48 h) HUVEC, 48 h exposure
[7] = 24 h exposure, read-out: IC50 (24 h) HUVEC
[8] = read-out: IC50 (48 h) LoVo, 48 h exposure
[9] = 24 h exposure, read-out: IC50 (24 h) LoVo
[10] = MCF7, read-out: IC50 (48 h) MCF-7, 48 h exposure
[11] = MCF7, 24 h exposure, read-out: IC50 (24 h) MCF-7

Row | pIC50 (LoVo cells [1]; [8]) | pIC50 (LoVo cells [1]; [9]) | pIC50 (MCF-7 cells [2]; [10]) | pIC50 (MCF-7 cells [2]; [11]) | SMILES | pIC50 (HUVEC normal cells; [6]) | pIC50 (HUVEC normal cells; [7]) | Total Apoptosis (%) 24 h HUVEC (HUVEC cells; 5 μM) | Total Apoptosis (%) 48 h HUVEC (HUVEC cells; 5 μM) | Total Apoptosis (%) 24 h HUVEC (HUVEC cells; 50 μM) | Total Apoptosis (%) 48 h HUVEC (HUVEC cells; 50 μM) | Total Apoptosis (%) 24 h LoVo (LoVo cells [3]; 5 μM) | Total Apoptosis (%) 48 h LoVo (LoVo cells [3]; 5 μM) | Total Apoptosis (%) 24 h LoVo (LoVo cells [3]; 50 μM) | Total Apoptosis (%) 48 h LoVo (LoVo cells [3]; 50 μM) | Total Apoptosis (%) 24 h MCF-7 (MCF-7 cells [4]; 5 μM) | Total Apoptosis (%) 48 h MCF-7 (MCF-7 cells [4]; 5 μM) | Total Apoptosis (%) 24 h MCF-7 (MCF-7 cells [4]; 50 μM) | LC50 at 48 h [5] | Maximum Average L% (lethality) (Daphnia magna; 24 h) | Maximum Average L% (lethality) (Daphnia magna; 48 h) | further results
1 | 4.54 | 4.27 | 3.92 | 3.81 | COc1ccc(OC)c(-c2nnc(N)s2)c1 [2d, 5-(2,5-Dimethoxyphenyl)-1,3,4-thiadiazol-2-amine] | 4.02 | < 3.40 | 28.4% | 14.4% | 19.8% | 16.8% | 13.5% | 19.3% | 12.0% | 17.9% | 14.6% | 37.6% | 11.8% | 50.7 µM | 40% | 95% | Total Apoptosis (%) 48 h MCF-7 (MCF-7 cells [4]; 50 μM): 34.9%; LC50 at 24 h [5]: 241 µM
2 | < 3.40 | < 3.40 | < 3.40 | < 3.40 | CC(=O)Nc1nnc(-c2ccccc2)s1 [3a, N-(5-Phenyl-1,3,4-thiadiazol-2-yl)acetamide] | < 3.40 | < 3.40 | 26.6% | 18.2% | 22.6% | 20.1% | 14.9% | 20.1% | 14.5% | 22.3% | 17.6% | 24.9% | 17.9% | < 6.25 µM | 95% | 100% | LC50 at 24 h [5]: < 6.25 µM
3 | 4.20 | 3.76 | < 3.40 | < 3.40 | O=C(Nc1nnc(-c2ccccc2)s1)c1ccccc1 [3b, N-(5-Phenyl-1,3,4-thiadiazol-2-yl)benzamide] | < 3.40 | < 3.40 | 17.8% | 15.3% | 17.0% | 15.9% | 12.5% | 22.2% | 12.6% | 20.9% | 19.2% | 43.7% | 16.4% | 228 µM | 5% | 45% | viability at 200 µM (LoVo cells [1]; 24 h, 200 μM, read-out: viability of LoVo tumor cells): < 50%; Total Apoptosis (%) 48 h MCF-7 (MCF-7 cells [4]; 50 μM): 41.3%; pIC50 (MCF-7): 5.23
4 | < 3.40 | < 3.40 | < 3.40 | < 3.40 | O=C(Nc1nnc(-c2ccccc2)s1)c1ccccc1CSc1ccccc1 [3c, 2-Phenylthiomethyl-N-(5-phenyl-1,3,4-thiadiazol-2-yl)benzamide] | < 3.40 | < 3.40 | 15.5% | 13.5% | 16.9% | 14.7% | 14.8% | 27.6% | 11.2% | 24.5% | 16.4% | 39.3% | 14.3% | 188 µM | 10% | 55% | Total Apoptosis (%) 48 h MCF-7 (MCF-7 cells [4]; 50 μM): 37.3%
